The test system of assay [1] is Vibrio sp. In words: Vibrio reduction by silver combined with berberine during hatching (Example 4, Figure 2). The following applies: berberine 0.1 mg/l to 2.5 mg/l added together with silver 0.1 mg Ag per liter. The assay is classed as cell-based. As for the experimental part: GSL-cysts were incubated at 2g cysts /l, following standard procedures, i.e.: salinity of 25 g/l, temperature of 30°C. Continuous illumination and air bubbling was provided. Silver nitrate, thiosulphate and berberine were added in different concentrations to the hatching medium. After 24 hours, the hatching percentage was calculated and samples of the hatching medium were taken for determination of Vibrio sp. on TCBS.

Another assay has as its system gram-positive bacteria. The following applies: against gram-positive bacteria; cited from earlier work.
Assay [2] deals with Vibrio sp. Put plainly: Vibrio count on TCBS in hatching medium (Example 1). The assay is classed as cell-based. The following applies: after 24 hours; summary of Table 1. How it is done:
(§1) 1000 g commercially available dry cysts from Great Salt Lake (GSL-strain) were sprayed with 20 ml solution to which 2.43g or 2.02g AgNO3 is added and another 1000 g cysts were sprayed with 20 ml to which 14.20g or 11.81g thiosulphate (Na2S2O3.5(H2O)) is added (in a ratio of 4 mol thiosulphate to 1 mol AgNO3) to obtain respectively 1.50 or 1.25 mg Ag/l in the hatching medium, after incubation of 2g treated cysts therein. The cysts were gently mixed for 15-30 minutes while spraying. Both fractions were mixed together in a ratio of (1:1). The cysts were vacuum packed and stored at different temperatures (4°C, 20°C and 30°C). Cysts from the same batch were kept as a control. After 4 weeks they were incubated at 2g (treated) cysts /l, following standard procedures, i.e.: salinity of 25 g/I, temperature of 30°C. Continuous illumination and air bubbling was provided. After 24 hours of incubation, samples of the hatching medium were taken for determination of the total count on Marine agar (MA) and Vibrio sp. on TCBS (specific growth medium for Vibrio sp.). The hatching percentage (percentage of cysts that hatch on the total of full cysts) of the cysts was calculated. Tabel 1: Hatching percentage (HP) of cysts, number of colony forming units (cfu) per ml of hatching medium on MA and on TCBS after 24h incubation of Artemia cysts of control cysts and cysts with different amounts of AgNO3 (expressed as mg Ag/l hatching medium). Each value is the average of three counts.

The test system of assay [3] is marine heterotrophic bacterial population. In words: Total bacterial count on Marine agar in hatching medium (Example 1). The following applies: after 24 hours; summary of Table 1. Format: cell-based. How it is done: as §1

Bounds are passed on as bounds.

Take `COc1ccc2cc3[n+](cc2c1OC)CCc1cc2c(cc1-3)OCO2` [berberine, reference compound]: the “reduction in Vibrio species” value with Vibrio sp. [1] is reported as “some reduction in Vibrio species is observed”. Also, in the assay with gram-positive bacteria, the inhibitory activity is 50 to 400 mg/L.

For the compound “silver thiosulphate [silver nitrate and thiosulphate]”, the “TCBS (Vibrio sp.) in the medium with treated cysts” value with Vibrio sp. [2] is on record as less than 300 cfu/ml. Moreover, in assay [3], the “total counts on Marine Agar” value is listed as “not affected”.
